Results reported in PubChem BioAssay (NCI).
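These data come from cells grown in 96-well plates and exposed to compound for 48 hours at five concentrations. GI50 = concentration required for 50% inhibition of growth. TGI denotes the concentration required for complete inhibition of growth.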

Legend:
Assay in all cases: NCI-60 cell line screen, 48 h
HL-60(TB) leukemia = test system: HL-60(TB) leukemia
K-562 leukemia = test system: K-562 leukemia
SK-OV-3 ovarian = test system: SK-OV-3 ovarian
LOX IMVI melanoma = test system: LOX IMVI melanoma
786-0 renal = test system: 786-0 renal
NCI/ADR-RES ovarian = test system: NCI/ADR-RES ovarian
CAKI-1 renal = test system: CAKI-1 renal
HS 578T breast = test system: HS 578T breast
UACC-62 melanoma = test system: UACC-62 melanoma
DU-145 prostate = test system: DU-145 prostate
OVCAR-4 ovarian = test system: OVCAR-4 ovarian
HOP-62 NSCLC = test system: HOP-62 NSCLC
SF-295 CNS = test system: SF-295 CNS
CCRF-CEM leukemia = test system: CCRF-CEM leukemia
MALME-3M melanoma = test system: MALME-3M melanoma
MDA-MB-231 breast = test system: MDA-MB-231 breast
U251 CNS = test system: U251 CNS
RXF 393 renal = test system: RXF 393 renal
M14 melanoma = test system: M14 melanoma
SW-620 colon = test system: SW-620 colon
TK-10 renal = test system: TK-10 renal
COLO 205 colon = test system: COLO 205 colon
UACC-257 melanoma = test system: UACC-257 melanoma
A549 NSCLC = test system: A549 NSCLC
SF-539 CNS = test system: SF-539 CNS
OVCAR-5 ovarian = test system: OVCAR-5 ovarian
HOP-92 NSCLC = test system: HOP-92 NSCLC
HT29 colon = test system: HT29 colon
A498 renal = test system: A498 renal
MDA-MB-435 = test system: MDA-MB-435
IGROV1 ovarian = test system: IGROV1 ovarian
PC-3 prostate = test system: PC-3 prostate
HCT-15 colon = test system: HCT-15 colon
SN12C renal = test system: SN12C renal
NCI-H460 lung = test system: NCI-H460 lung
NCI-H23 lung = test system: NCI-H23 lung
MCF7 breast = test system: MCF7 breast
SK-MEL-2 melanoma = test system: SK-MEL-2 melanoma
HCC-2998 colon = test system: HCC-2998 colon
SR leukemia = test system: SR leukemia
BT-549 breast = test system: BT-549 breast
ACHN renal = test system: ACHN renal
SNB-75 CNS = test system: SNB-75 CNS
KM12 colon = test system: KM12 colon
SK-MEL-5 melanoma = test system: SK-MEL-5 melanoma
NCI-H522 lung = test system: NCI-H522 lung
UO-31 renal = test system: UO-31 renal
OVCAR-3 ovarian = test system: OVCAR-3 ovarian
RPMI-8226 leukemia = test system: RPMI-8226 leukemia
OVCAR-8 ovarian = test system: OVCAR-8 ovarian
MOLT-4 leukemia = test system: MOLT-4 leukemia
HCT-116 colon = test system: HCT-116 colon
SF-268 CNS = test system: SF-268 CNS
NCI-H226 lung = test system: NCI-H226 lung
SK-MEL-28 melanoma = test system: SK-MEL-28 melanoma
T-47D breast = test system: T-47D breast
EKVX NSCLC = test system: EKVX NSCLC
SNB-19 CNS = test system: SNB-19 CNS
MDA-N = test system: MDA-N

CO[C@H](C(=O)N[C@@H](CCCCNC(=O)OCc1ccccc1)C(=O)OC(C)(C)C)[C@@H]1Cc2cc3cc(OC4CC(OC5CC(O)C(O)C(C)O5)C(O)C(C)O4)c(C)c(O)c3c(O)c2C(=O)[C@H]1OC1CC(OC2CC(OC3CC(C)(O)C(O)C(C)O3)C(O)C(C)O2)C(O)C(C)O1 (some centres not stated)
GI50 (HL-60(TB) leukemia): 971 nM
TGI (HL-60(TB) leukemia): 5.92 µM
GI50 (K-562 leukemia): 635 nM
TGI (K-562 leukemia): > 10 µM
GI50 (SK-OV-3 ovarian): 1020 nM
TGI (SK-OV-3 ovarian): 2810 nM
GI50 (LOX IMVI melanoma): 434 nM
TGI (LOX IMVI melanoma): 2400 nM
GI50 (786-0 renal): 563 nM
TGI (786-0 renal): 1880 nM
TGI (NCI/ADR-RES ovarian): > 10 µM
GI50 (CAKI-1 renal): 1040 nM
TGI (CAKI-1 renal): 3.42 µM
GI50 (HS 578T breast): 1050 nM
TGI (HS 578T breast): 5 µM
GI50 (UACC-62 melanoma): 369 nM
TGI (UACC-62 melanoma): 1700 nM
GI50 (DU-145 prostate): 842 nM
TGI (DU-145 prostate): > 10 µM
GI50 (OVCAR-4 ovarian): 3000 nM
TGI (OVCAR-4 ovarian): > 10 µM
GI50 (HOP-62 NSCLC): 464 nM
TGI (HOP-62 NSCLC): 2730 nM
GI50 (SF-295 CNS): 468 nM
TGI (SF-295 CNS): 1720 nM
GI50 (CCRF-CEM leukemia): 404 nM
TGI (CCRF-CEM leukemia): 5.07 µM
GI50 (MALME-3M melanoma): 516 nM
TGI (MALME-3M melanoma): 1860 nM
GI50 (MDA-MB-231 breast): 939 nM
TGI (MDA-MB-231 breast): 3.1 µM
GI50 (U251 CNS): 529 nM
TGI (U251 CNS): 1940 nM
GI50 (RXF 393 renal): 705 nM
TGI (RXF 393 renal): 2020 nM
GI50 (M14 melanoma): 879 nM
TGI (M14 melanoma): 2480 nM
GI50 (SW-620 colon): 441 nM
TGI (SW-620 colon): 3.34 µM
GI50 (TK-10 renal): 1150 nM
TGI (TK-10 renal): > 10 µM
GI50 (COLO 205 colon): 689 nM
TGI (COLO 205 colon): 3.63 µM
GI50 (UACC-257 melanoma): 812 nM
TGI (UACC-257 melanoma): 4.01 µM
GI50 (A549 NSCLC): 821 nM
TGI (A549 NSCLC): 5.28 µM
GI50 (SF-539 CNS): 559 nM
TGI (SF-539 CNS): 3.08 µM
GI50 (OVCAR-5 ovarian): 976 nM
TGI (OVCAR-5 ovarian): 2820 nM
GI50 (HOP-92 NSCLC): 443 nM
TGI (HOP-92 NSCLC): 1970 nM
GI50 (HT29 colon): 508 nM
TGI (HT29 colon): > 10 µM
GI50 (A498 renal): 640 nM
TGI (A498 renal): 2030 nM
GI50 (MDA-MB-435): 805 nM
TGI (MDA-MB-435): 2280 nM
GI50 (IGROV1 ovarian): 449 nM
TGI (IGROV1 ovarian): > 10 µM
GI50 (PC-3 prostate): 700 nM
TGI (PC-3 prostate): 8.67 µM
GI50 (HCT-15 colon): 2550 nM
TGI (HCT-15 colon): > 10 µM
GI50 (SN12C renal): 463 nM
TGI (SN12C renal): 3.88 µM
GI50 (NCI-H460 lung): 364 nM
TGI (NCI-H460 lung): 1490 nM
GI50 (NCI-H23 lung): 667 nM
TGI (NCI-H23 lung): 2370 nM
GI50 (MCF7 breast): 281 nM
TGI (MCF7 breast): 2030 nM
GI50 (SK-MEL-2 melanoma): 942 nM
TGI (SK-MEL-2 melanoma): 3.29 µM
GI50 (HCC-2998 colon): 885 nM
TGI (HCC-2998 colon): 3.2 µM
GI50 (SR leukemia): 319 nM
TGI (SR leukemia): > 10 µM
GI50 (BT-549 breast): 518 nM
TGI (BT-549 breast): 1810 nM
GI50 (ACHN renal): 670 nM
TGI (ACHN renal): 4.45 µM
GI50 (SNB-75 CNS): 541 nM
TGI (SNB-75 CNS): 1970 nM
GI50 (KM12 colon): 603 nM
TGI (KM12 colon): 2050 nM
GI50 (SK-MEL-5 melanoma): 432 nM
TGI (SK-MEL-5 melanoma): 1590 nM
GI50 (NCI-H522 lung): 687 nM
TGI (NCI-H522 lung): 3.15 µM
GI50 (UO-31 renal): 1570 nM
TGI (UO-31 renal): 8.18 µM
GI50 (OVCAR-3 ovarian): 1390 nM
TGI (OVCAR-3 ovarian): > 10 µM
GI50 (RPMI-8226 leukemia): 487 nM
TGI (RPMI-8226 leukemia): 3.65 µM
GI50 (OVCAR-8 ovarian): 697 nM
TGI (OVCAR-8 ovarian): > 10 µM
GI50 (MOLT-4 leukemia): 381 nM
TGI (MOLT-4 leukemia): 2730 nM
GI50 (HCT-116 colon): 397 nM
TGI (HCT-116 colon): 1630 nM
GI50 (SF-268 CNS): 624 nM
TGI (SF-268 CNS): 2030 nM
GI50 (NCI-H226 lung): 673 nM
TGI (NCI-H226 lung): 2140 nM
GI50 (SK-MEL-28 melanoma): 468 nM
TGI (SK-MEL-28 melanoma): 1870 nM
GI50 (T-47D breast): 958 nM
TGI (T-47D breast): > 10 µM
GI50 (EKVX NSCLC): 1170 nM
TGI (EKVX NSCLC): 3.1 µM
GI50 (SNB-19 CNS): 520 nM
TGI (SNB-19 CNS): 2600 nM

O=C(CCCN1CC=C(n2c(=O)[nH]c3ccccc32)CC1)c1cccs1
TGI (HL-60(TB) leukemia): > 100 µM
TGI (K-562 leukemia): > 100 µM
TGI (SK-OV-3 ovarian): > 100000 nM
TGI (LOX IMVI melanoma): > 100000 nM
TGI (786-0 renal): > 100000 nM
TGI (NCI/ADR-RES ovarian): > 100 µM
TGI (CAKI-1 renal): > 100 µM
TGI (UACC-62 melanoma): > 100000 nM
TGI (DU-145 prostate): > 100 µM
TGI (OVCAR-4 ovarian): > 100 µM
TGI (HOP-62 NSCLC): > 100000 nM
TGI (SF-295 CNS): > 100000 nM
TGI (CCRF-CEM leukemia): > 100 µM
TGI (MALME-3M melanoma): > 100000 nM
TGI (MDA-MB-231 breast): > 100 µM
TGI (U251 CNS): > 100000 nM
TGI (RXF 393 renal): > 100000 nM
TGI (M14 melanoma): > 100000 nM
TGI (SW-620 colon): > 100 µM
TGI (TK-10 renal): > 100 µM
TGI (COLO 205 colon): > 100 µM
TGI (UACC-257 melanoma): > 100 µM
TGI (A549 NSCLC): > 100 µM
TGI (SF-539 CNS): > 100 µM
TGI (OVCAR-5 ovarian): > 100000 nM
TGI (HOP-92 NSCLC): > 100000 nM
TGI (HT29 colon): > 100 µM
TGI (A498 renal): > 100000 nM
TGI (MDA-MB-435): > 100000 nM
TGI (IGROV1 ovarian): > 100 µM
TGI (PC-3 prostate): > 100 µM
TGI (HCT-15 colon): > 100 µM
TGI (SN12C renal): > 100 µM
TGI (NCI-H460 lung): > 100000 nM
TGI (NCI-H23 lung): > 100000 nM
TGI (MCF7 breast): > 100000 nM
TGI (SK-MEL-2 melanoma): > 100 µM
TGI (HCC-2998 colon): > 100 µM
TGI (SR leukemia): > 100 µM
TGI (MDA-N): > 100 µM
TGI (ACHN renal): > 100 µM
TGI (SNB-75 CNS): > 100000 nM
TGI (KM12 colon): > 100000 nM
TGI (SK-MEL-5 melanoma): > 100000 nM
TGI (NCI-H522 lung): > 100 µM
TGI (UO-31 renal): > 100 µM
TGI (OVCAR-3 ovarian): > 100 µM
TGI (RPMI-8226 leukemia): > 100 µM
TGI (OVCAR-8 ovarian): > 100 µM
TGI (MOLT-4 leukemia): > 100000 nM
TGI (HCT-116 colon): > 100000 nM
TGI (SF-268 CNS): > 100000 nM
TGI (NCI-H226 lung): > 100000 nM
TGI (SK-MEL-28 melanoma): > 100000 nM
TGI (T-47D breast): > 100 µM
TGI (EKVX NSCLC): > 100 µM
TGI (SNB-19 CNS): > 100000 nM
